Measurements from US20090226384A1, “ANTIMICROBIAL COMPOSITION CONTAINING TRICLOSAN AND AT LEAST ONE FUNCTIONALIZED HYDROCARBON” (priority 2006, published 2009).
Converted amounts (≈) assume the structure as drawn. Read-outs that look alike come from different tables or passages of the source.

What was measured:
[1] = system: Malassezia furfur (Pityrosporum ovale) MTCC 1374; assay: MIC by macrobroth double dilution (NCCLS); format: cell-based
Description: (§1) MIC value—is the lowest concentration of the antimicrobial agent required to inhibit growth of the microorganism was determined by the macrobroth double dilution method as per the NCCLS guidelines. (Reference Method for broth dilution antifungal susceptibility testing of Yeasts, Approved Standard; M27A, Vol. 17, No. 9, 1997 & Methods for dilution antimicrobial susceptibility tests for bacteria that grow aerobically; Approved Standard—5th Ed., M7-A5, Vol. 20, No. 2, 2000. National Committee for Clinical Laboratory Standards, Wayne, Pa.).
(§2) The test substances viz., TCS, CMB, ZPTO, KTZ, LGO, Citral, Nerol & Geraniol were prepared as stock solutions. Weighed 10 mg of TCS, CMB, ZPTO, & KTZ individually and dissolved in 1 ml of solvent (IN NaOH for TCS and DMSO for CMB, ZPTO & KTZ) and diluted in 19 ml SDB. The concentration of the prepared substances was 500 μg/ml. Similarly, weighed 400 mg of LGO, Citral, Nerol & Geraniol individually and dissolved in 2 ml DMSO and diluted in 18 ml SDB. The concentration of LGO, Citral, Nerol & Geraniol was 20000 μg/ml. All test solutions were prepared afresh prior to determination of MIC.
(§3) S. aureus, S. epidermidis and B. subtilis were cultured in Mueller Hinton Agar (MHA) for 24 hrs. at 37° C. 1-2 colonies were suspended in MHB overnight at 37° C. C. albicans and A. niger were cultured in Sabauraud Dextrose Agar (SDA) at 28° C. for 24 hrs and 4 days respectively. 1-2 colonies of C. albicans was suspended in SDB and cultured overnight at 28° C. Aspergillus spores were washed with physiological saline prior to testing. M. furfur was cultured in SDA with 1% Tween 80 for 72 hrs at 32° C. Colonies were suspended in SDB with 1% Tween 80 and incubated at 32° C. M. restricta was cultured in Dixon agar at 32° C. for 3-4 days. Colonies were suspended in saline prior to testing.
(§4) Colonies suspended in broth/saline were determined for counts photometrically. (Hammer K A, et al.: Antimicrob. Agents Chemo., (2000), 44(2): 467-469). The organisms were diluted such that the final concentration was 1×10^6 cfu/ml for S. aureus, S. epidermidis and B. subtilis, 1×10^5 cfu/ml for C. albicans and A. niger and 2×10^3 cfu/ml for M. furfur and M. restricta.
(§5) Double fold serial dilutions were done with the test substance, such that the final concentration of TCS was between 250 μg/ml and 0.03 μg/ml; and that of functionalized hydrocarbon (Citral, Nerol, Geraniol) and/or mixtures containing such functionalized hydrocarbons (LGO) was between 10000 μg/ml-19.53 μg/ml. Inoculated organisms were added to the tubes and required controls were also set up in the assay to rule out contamination/inactivation of the test substance.
(§6) Tubes were incubated for 24 hrs at 37° C. for S. aureus, S. epidermidis and B. subtilis; at 28° C. for C. albicans; for 48 hrs at 28° C. for A. niger, 32° C. for M, furfur and M. restricta. At the end of the incubation period, 10 μl aliquots from each tube were spot inoculated onto Nutrient agar (for bacteria), SDA (for C. albicans & A. niger), SDA with 1% Tween 80 for M. furfur and Dixon Agar for M. restricta. The plates were incubated for 24 hrs at 37° C. (S. aureus, S. epidermidis & B. subtilis), at 28° C. (C. albicans); 3-4 days at 28° C. (A. niger), 48-72 hrs at 32° C. (M. furfur & M. restricta) when the colonies became visible.
(§7) At the end of the incubation period, plates were checked for growth of colonies.
(§8) 140 mg of the sample was dissolved in 2 ml of Dimethyl Sulfoxide (DMSO) and further diluted in 18 ml of SDB. The final concentration of antimicrobial and functionalized hydrocarbon and/or mixtures containing such functionalized hydrocarbons in the mixture was 333.33 μg/ml and 6666.66 μg/ml respectively.
(§9) 205 mg of the sample was dissolved in 2 ml of Dimethyl Sulfoxide (DMSO) and further diluted in 18 ml of SDB. The final concentration of antimicrobial and functionalized hydrocarbon and/or mixtures containing such functionalized hydrocarbons in the mixture was 250 μg/ml and 10000 μg/ml respectively.

[2] = system: Staphylococcus epidermidis MTCC 435; assay: MIC by macrobroth double dilution (NCCLS); format: cell-based
Description: as §1, §2, §3, §4, §5, §6, §7, §8, §9

[3] = system: Staphylococcus aureus MTCC 96; assay: MIC by macrobroth double dilution (NCCLS); format: cell-based
Description: as §1, §2, §3, §4, §5, §6, §7, §8, §9

[4] = system: Candida albicans MTCC 3017; assay: MIC by macrobroth double dilution (NCCLS); format: cell-based
Description: as §1, §2, §3, §4, §5, §6, §7, §8, §9

[5] = system: Aspergillus niger MTCC 1344; assay: MIC by macrobroth double dilution (NCCLS); format: cell-based
Description: as §1, §2, §3, §4, §5, §6, §7, §8, §9

[6] = system: Bacillus subtilis MTCC 441; assay: MIC by macrobroth double dilution (NCCLS); format: cell-based
Description: as §1, §2, §3, §4, §5, §6, §7, §8, §9

[7] = system: Malassezia restricta CBS 7877; assay: MIC by macrobroth double dilution (NCCLS); format: cell-based
Description: as §1, §2, §3, §4, §5, §6, §7, §8, §9

[8] = Bhargava & Leonard 1996; cited from earlier work
[9] = Malassezia furfur, MTCC1374, individual ingredient, M. furfur, read-out: MIC
[10] = MTCC435, individual ingredient, S. epidermidis, read-out: MIC
[11] = MTCC96, individual ingredient, S. aureus, read-out: MIC
[12] = MTCC3017, individual ingredient, C. albicans, read-out: MIC
[13] = MTCC1344, individual ingredient, A. niger, read-out: MIC
[14] = MTCC441, individual ingredient, B. subtilis, read-out: MIC
[15] = CBS7877, individual ingredient, M. restricta, read-out: MIC

Compound	MIC [1, 9]	MIC [2, 10]	MIC [3, 11]	MIC [4, 12]	MIC [5, 13]	MIC [6, 14]	MIC [7, 15]	also measured
CC(C)(C)C(=O)C(Oc1ccc(Cl)cc1)n1ccnc1 (stereo not drawn) [CMB, Climbazole]	1.95 mg/L (≈ 6.66 µM)	–	–	–	–	–	–	–
CC(C)=CCCC(C)=CC=O [Citral]	39.1 mg/L (≈ 257 µM)	312 mg/L (≈ 2050 µM)	312 mg/L (≈ 2050 µM)	156 mg/L (≈ 1030 µM)	625 mg/L (≈ 4110 µM)	5000 mg/L (≈ 32800 µM)	156 mg/L (≈ 1030 µM)	–
CC(C)=CCC/C(C)=C/CO [Geraniol]	156 mg/L (≈ 1010 µM)	1250 mg/L (≈ 8100 µM)	5000 mg/L (≈ 32400 µM)	1250 mg/L (≈ 8100 µM)	5000 mg/L (≈ 32400 µM)	2500 mg/L (≈ 16200 µM)	312 mg/L (≈ 2030 µM)	–
CC(=O)N1CCN(c2ccc(OCC3COC(Cn4ccnc4)(c4ccc(Cl)cc4Cl)O3)cc2)CC1 (stereo not drawn) [KTZ, Ketoconazole]	0.48 mg/L (≈ 0.903 µM)	–	–	–	–	–	–	–
CC(C)=CCC/C(C)=C\CO [Nerol]	156 mg/L (≈ 1010 µM)	1250 mg/L (≈ 8100 µM)	5000 mg/L (≈ 32400 µM)	1250 mg/L (≈ 8100 µM)	1250 mg/L (≈ 8100 µM)	10000 mg/L (≈ 64800 µM)	312 mg/L (≈ 2030 µM)	–
Oc1cc(Cl)ccc1Oc1ccc(Cl)cc1Cl [TCS, 2,4,4′-trichloro-2′-hydroxydiphenyl ether, reference compound]	–	–	–	–	–	–	–	carcinogenic, mutagenic or teratogenic effects [8]: not found to have any carcinogenic, mutagenic or teratogenic effects; toxicity to humans and other mammals [8]: relatively non-toxic; MIC ([2]; MTCC435): 7.81 mg/L (≈ 27 µM); MIC ([3]; MTCC96): 1.95 mg/L (≈ 6.73 µM); MIC ([4]; MTCC3017): 15.6 mg/L (≈ 53.9 µM); MIC ([5]; MTCC1344): 31.2 mg/L (≈ 108 µM); MIC ([6]; MTCC441): 15.6 mg/L (≈ 53.9 µM); MIC ([1]; Malassezia furfur, MTCC1374): 62.5 mg/L (≈ 216 µM); MIC ([7]; CBS7877): 62.5 mg/L (≈ 216 µM)
Zinc Pyrithione [ZPTO]	–	–	–	–	–	–	–	MIC ([1]; individual ingredient, M. furfur): 3.9 mg/L
